Measurements published in patent EP0007206A1, “Phenethanolamines, their formulations, preparation and use” (ELI LILLY AND COMPANY, priority 1978, dated 1980).

Columns and labels:
Type in all cases: in vivo, mice
[1] = system: adenocarcinoma tumor resembling human breast tumor (the 755 tumor system); experiment: combination chemotherapy with 6 MP, implanted 755 adenocarcinoma (Table 2); conditions: 6 MP 1.5 mg./kg. orally once daily, A 3.75 mg./kg. s.c. twice daily
Method: (§1) In a typical experiment, laboratory mice were infected by a subcutaneous implantation of a tumor tissue in the axillary region of the body. The implantations were accomplished by means of a trocar. Initial tumor size in each animal generally was about 2 square millimeters. Tumor size was then measured periodically as length and width in mm. Typical tumor systems implanted included adenocarcinoma 755, an Aly Fast strain of bronchiogenic carcinoma, and mecca lymphosarcoma. Oncolytic agents utilized in the tests to determine the potentiating effects of the compounds of the invention.include cytoxan, 5-fluorouracil, vindesine, methotrexate and 6-mercaptopurine. […] Ten infected animals normally were selected to receive a known oncolytic agent. Another ten infected animals were administered the known oncolytic agent in addition to a compound of this invention.
According to the test, 6 MP was administered alone to 10 mice orally at the dose of 1.5 mg./kg. once each day for twenty-eight days. Another group of ten mice received 6 MP daily (1.5 mg./kg.) plus the compound of this invention (A), which was administered subcutaneously at the rate of 3.75 mg./kg. twice daily for twenty-eight days. […] The average tumor size for the test group on the indicated day of measurement is reported in column I under each of the reported days of measurement. In column II of each of the reported days of measurement is recorded the number of surviving animals out of the particular test group.

755 adenocarcinoma [2] = experiment: combination chemotherapy with 6-mercaptopurine, implanted 755 adenocarcinoma (Table 7); conditions: by day 29; 6 MP 4 mg./kg. i.p. once per day on days 5, 9, 13
Method: (§2) In a typical experiment, laboratory mice were infected by a subcutaneous implantation of a tumor tissue in the axillary region of the body. The implantations were accomplished by means of a trocar. Initial tumor size in each animal generally was about 2 square millimeters. Tumor size was then measured periodically as length and width in mm. Typical tumor systems implanted included adenocarcinoma 755, an Aly Fast strain of bronchiogenic carcinoma, and mecca lymphosarcoma. Oncolytic agents utilized in the tests to determine the potentiating effects of the compounds of the invention.include cytoxan, 5-fluorouracil, vindesine, methotrexate and 6-mercaptopurine. Twenty or thirty infected animals generally were selected as controls and received placebo. Ten infected animals normally were selected to receive a known oncolytic agent. Another ten infected animals were administered the known oncolytic agent in addition to a compound of this invention.
Mice were infected by implantation of a 755 adenocarcinoma. Thirty mice were held as controls and received only placebo. Ten mice were administered 4 mg./kg. of 6-mercaptopurine (6 MP) intraperitoneally once per day on the fifth, ninth and thirteenth days following implantation. […]

755 adenocarcinoma [3] = experiment: combination chemotherapy with 5-fluorouracil, implanted 755 adenocarcinoma (Table 6); conditions: for number of tumor free animals out of those still living / average tumor size: 5 FU 8 mg./kg. i.p. days 5, 9, 13, B 7.5 mg./kg. s.c. twice daily days 5 through 14
Method: as §1
5-Fluorouracil is essentially ineffective against the 755 adenocarcinoma in mice. […] Mice were infected by an implantation of the 755 adenocarcinoma. Thirty animals were given placebo, ten were given 5-fluorouracil alone, and ten were given N-(2-phenyl-2-hydroxyethyl)-1,1-dimethyl-3-(4-aminocarbonylphenyl)propylaminium chloride in combination with 5-fluorouracil. Treatment in all cases was started five days after implantation of the tumor system. 5-Fluorouracil was administered intraperitoneally at the rate of 8 mg./kg. given once on days 5, 9 and 13 following implantation, both to the animals receiving 5-FU alone and the combination. The animals undergoing combination chemotherapy received, in addition to 5-FU, N-(2-phenyl-2-hydroxyethyl)-l,l-dimethyl-3-(4-aminocarbonylphenyl)propylaminium chloride (compound B) at the rate of 7.5 mg./kg. given subcutaneously twice daily on days 5 through 14 of the test. Column I under each of the days of measurement reports the average tumor size in square millimeters of each test group. Column II under each of the days of measurement is the number of tumor free animals out of those still living on that day.

mecca- lymphosarcoma = experiment: combination chemotherapy with 5 FU, implanted mecca lymphosarcoma (Table 3); conditions: 5 FU 4 mg./kg. i.p. once daily, A 18.75 mg./kg. s.c. twice daily
Method: as §2
A similar study was carried out to determine the synergistic effect of N-(2-phenyl-2-hydroxyethyl)-1,1-dimethyl-3-(4-hydroxyphenyl)-propylaminium bromide (compound A) on the antineoplastic activity of 5-fluorouracil (designated in Table 3 as 5 FU) in the treatment of a mecca- lymphosarcoma in mice. 5-Fluorouracil was administered intraperitoneally at the rate of 4 mg./kg. once each day to a group of five test animals. Another group of five infected animals received the combination of 4 mg./kg. of 5 FU given intraperitoneally once each day plus the potentiating agent (compound A) given subcutaneously twice each day at the dose of 18.75 mg./kg. A group of 20 infected animals received placebo. Measurements of average tumor size for each group of animals were made on the tenth, fourteenth and eighteenth day following initial tumor implantation and dosing. Column I under each of the reported days gives the average tumor size in square millimeters. Column II under each of the reported days gives the number of surviving animals out of each test group. […] Moreover, after eighteen days of treatment, three of the five animals receiving combination chemotherapy were still alive, whereas all of the control animals and those receiving 5-FU alone had died.

With `Sc1ncnc2nc[nH]c12` [6 MP, 6-mercaptopurine] the “number of surviving animals out of test group” value (“number … of test group” below) ([1]; Day 0) was 10/10, the average tumor size ([1]; Day 9) was 100 square millimeters and the “number … of test group” value ([1]; Day 9) was 9/10. The average tumor size ([1]; Day 17) was 340 square millimeters, the “number … of test group” value ([1]; Day 17) was 7/10 and the average tumor size ([1]; Day 23) was 680 square millimeters. For the same compound, the “number … of test group” value ([1]; Day 23) was 6/10, the average tumor size ([1]; Day 28) was 1050 square millimeters and the “number … of test group” value ([1]; Day 28) was 1/10. For the same compound, the “animals that had died out of ten” value (755 adenocarcinoma [2]) was “All ten”.
For `O=c1[nH]cc(F)c(=O)[nH]1` [5 FU, 5-fluorouracil], the “number of tumor free animals out of those still living” value (755 adenocarcinoma [3]; Day 0) was 0/10, the average tumor size (755 adenocarcinoma [3]; Day 5) was 95 square millimeters and the “number of tumor free animals out of those still living” value (755 adenocarcinoma [3]; Day 5) was 0/10. For the same compound, the average tumor size (755 adenocarcinoma [3]; Day 12) was 350 square millimeters, the “number of tumor free animals out of those still living” value (755 adenocarcinoma [3]; Day 12) was 0/10 and the average tumor size (755 adenocarcinoma [3]; Day 17) was 630 square millimeters. The “number of tumor free animals out of those still living” value (755 adenocarcinoma [3]; Day 17) was 0/9, the average tumor size (755 adenocarcinoma [3]; Day 23) was 680 square millimeters and the “number of tumor free animals out of those still living” value (755 adenocarcinoma [3]; Day 23) was 0/6. For the same compound, the “number of tumor free animals out of those still living” value (755 adenocarcinoma [3]; Day 29) was 0/0, the “number of tumor free animals out of those still living” value (755 adenocarcinoma [3]; Day 73) was 0/0 and the “effectiveness in the treatment of the 755 adenocarcinoma” value (755 adenocarcinoma [3]; mice, summary in words of Table 6) was “ineffective”. For the same compound, the “number … of test group” value (mecca- lymphosarcoma; Day 0) was 5/5, the average tumor size (mecca- lymphosarcoma; Day 10) was 490 square millimeters and the “number … of test group” value (mecca- lymphosarcoma; Day 10) was 5/5. For the same compound, the average tumor size (mecca- lymphosarcoma; Day 14) was 490 square millimeters, the “number … of test group” value (mecca- lymphosarcoma; Day 14) was 4/5 and the “number … of test group” value (mecca- lymphosarcoma; Day 18) was 0/5.
